Like-named read-outs stand apart in the source and are kept apart here.
Key:
[1] = system: NCI-H1975 (EGFR L858R/T790M); assay: Inhibition test for growth of cancer cell expressing EGFR (MTS), NCI-H1975; assay type: cell-based; conditions: Homo sapiens, read-out: GI50 NCI-H1975 EGFR L858R/T790M
Method: (§4) A431 cell line was incubated in a high-glucose DMEM (Dulbecco's Modified Eagle's Medium) supplemented with 10% fetal bovine serum (FBS) and 1% penicillin/streptomycin (Gibco BRL), and HCC827 and NCI-H1975 cell lines were incubated in an RPMI medium supplemented with 10% FBS, 1% penicillin/streptomycin and 1% sodium pyruvate.
(§5) The cancer cell lines stored in a liquid nitrogen tank were each quickly thawed at 37° C., and centrifuged to remove the medium. The resulting cell pellet was mixed with a culture medium, incubated in a culture flask at 37° C. under 5% CO2 for 2 to 3 days, and the medium was removed. The remaining cells were washed with DPBS (Dulbecco's Phosphate Buffered Saline) and separated from the flask by using Tripsin-EDTA. […] 100 μl of the diluted cell solution was added to each well of a 96-well plate, and incubated at 37° C. under 5% CO2 for 1 day.
(§6) In case that the test compound was not soluble in DMSO, 1% HCl was added thereto and treated in a 40° C. water bath for 30 mins until a complete dissolution was attained. The DMSO solution containing test compound was diluted with a culture medium to a final concentration of 100 μM, and then diluted 10 times serially to 10^−6 μM (a final concentration of DMSO was less than 1%).
(§7) The medium was removed from each well of the 96-well plate. And then, 100 μl of a test compound solution was added to each well holding the cultured cells, and the plate was incubated at 37° C. under 5% CO2 for 72 hours (except that NCI-H1975 cells were incubated for 48 hours). After removing the medium from the plate, 50 μA of 10% trichloroacetic acid was added to each well, and the plate was kept at 4° C. for 1 hour to fix the cells to the bottom of the plate. The added 10% trichloroacetic acid solution was removed from each well, the plate was dried, 100 μA of an SRB (Sulforhodamine-B) dye solution at a concentration of 0.4% dissolved in 1% acetic acid was added thereto, and the resulting mixture was reacted for 10 mins at room temperature. After removing the dye solution, the plate was washed with water, and well dried. When the dye solution was not effectively removed by water, 1% acetic acid was used. 150 μA of 10 mM trisma base was added to each well, and the absorbance at 540 nm wavelength was determined with a microplate reader.

BTK = target: T1, BTK (Homo sapiens, UniProt Q06187); assay: z-lyte kinase assay, BTK; assay type: biochemical
T1 construct: purchased Invitrogen
Method: (§1) The inhibiting activities of the inventive compounds obtained in Examples 1 to 237 against EGFR WT and EGFR L858R/T790M kinase were determined using z-lyte kinase assay kit (Invitrogen, PV3191). The kinases used in the test were purchased from Invitrogen.
(§2) The compounds obtained in Examples 1 to 237 were each prepared to 10 mM DMSO solution, and a solution containing 4% DMSO were prepared therefrom and diluted to a concentration of 1 μM to 0.0001 μM. […] The test was conducted in a 384 well polystyrene flat-bottomed plates. 5 μl of the diluted solution of each compound was added to each well, and 10 μl of a mixture of peptide substrate and kinase in a suitable concentration and 5 μl of 5˜300 μM ATP solution were successively added thereto and the plate was incubated in a stirrer at room temperature for 60 minutes. After 60 mins, 10 μl of coloring reagent was added to the resulting mixture to initiate a fluorescence reaction of peptide substrate and a terminating solution was added thereto for terminating the reaction. A fluorescence value of each well was determined with a fluorescence meter (Molecular Device) at 400 nm (excitation filter) and 520 nm (emission filter). […] The calculation of IC50 and the result analysis were carried out by using Microsoft Excel.
(§3) The inhibiting activities of the inventive compounds obtained in Examples 1 to 237 against BTK and JAK3 kinases were determined, respectively. The procedure of Test Example 2 was repeated except that BTK and JAK3 kinases (Invitrogen) were employed instead of using the EGFR kinase.

[2] = system: HCC827 (EGFR DelE746_A750); assay: Inhibition test for growth of cancer cell expressing EGFR (SRB), HCC827; assay type: cell-based; conditions: Homo sapiens, HCC827, 72 h, read-out: GI50 HCC827 EGFR DelE746_A750;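 further: cells in 96-well plates exposed to tenfold serial dilutions from 100 µM, fixed with trichloroacetic acid, SRB-stained, absorbance read at 540 nm, DMSO under 1%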
Method: as §4, §5, §6, §7

JAK3 = target: T2, JAK3 (Homo sapiens, UniProt P52333); assay: z-lyte kinase assay, JAK3; assay type: biochemical
T2 construct: purchased Invitrogen
T2 sequence (P52333 1-1124): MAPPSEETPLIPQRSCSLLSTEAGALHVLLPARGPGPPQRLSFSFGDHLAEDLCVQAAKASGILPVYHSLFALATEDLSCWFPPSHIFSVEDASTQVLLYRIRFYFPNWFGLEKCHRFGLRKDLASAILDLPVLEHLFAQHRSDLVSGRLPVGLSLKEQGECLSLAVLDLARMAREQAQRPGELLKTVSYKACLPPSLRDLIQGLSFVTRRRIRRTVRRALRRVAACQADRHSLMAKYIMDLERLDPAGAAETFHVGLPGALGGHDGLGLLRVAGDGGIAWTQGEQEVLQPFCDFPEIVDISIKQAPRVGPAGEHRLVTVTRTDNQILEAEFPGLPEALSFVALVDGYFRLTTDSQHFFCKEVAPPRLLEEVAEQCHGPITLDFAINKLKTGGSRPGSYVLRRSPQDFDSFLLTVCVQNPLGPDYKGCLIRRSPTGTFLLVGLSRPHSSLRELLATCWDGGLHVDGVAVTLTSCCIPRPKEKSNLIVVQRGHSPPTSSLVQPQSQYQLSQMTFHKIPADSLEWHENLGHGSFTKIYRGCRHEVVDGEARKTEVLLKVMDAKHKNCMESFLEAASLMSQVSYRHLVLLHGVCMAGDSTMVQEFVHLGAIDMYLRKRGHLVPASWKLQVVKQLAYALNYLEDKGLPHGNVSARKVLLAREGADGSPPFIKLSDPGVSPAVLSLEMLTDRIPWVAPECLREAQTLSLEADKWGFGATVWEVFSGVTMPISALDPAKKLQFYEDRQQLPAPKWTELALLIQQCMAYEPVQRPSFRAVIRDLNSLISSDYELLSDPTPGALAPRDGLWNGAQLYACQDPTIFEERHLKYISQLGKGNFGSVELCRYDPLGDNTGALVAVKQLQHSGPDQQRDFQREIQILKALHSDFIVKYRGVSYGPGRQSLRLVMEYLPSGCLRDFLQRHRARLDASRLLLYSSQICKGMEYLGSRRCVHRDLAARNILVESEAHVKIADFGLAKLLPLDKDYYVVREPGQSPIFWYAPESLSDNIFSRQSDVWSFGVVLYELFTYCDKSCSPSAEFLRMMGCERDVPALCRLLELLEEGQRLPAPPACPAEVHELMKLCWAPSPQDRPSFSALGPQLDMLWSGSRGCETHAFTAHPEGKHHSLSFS
Method: as §1, §2, §3

A431 (EGFR WT) = assay: Inhibition test for growth of cancer cell expressing EGFR (SRB), A431; assay type: cell-based; conditions: Homo sapiens, read-out: GI50 A431 EGFR WT;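 further: cells in 96-well plates exposed to tenfold serial dilutions from 100 µM down to 10^−6 µM, DMSO under 1%, SRB staining read as absorbance at 540 nm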
Method: as §4, §5, §6, §7

[3] = A-431, A431 cells, 72 hours, SRB

T1 sequence (Q06187 whole entry): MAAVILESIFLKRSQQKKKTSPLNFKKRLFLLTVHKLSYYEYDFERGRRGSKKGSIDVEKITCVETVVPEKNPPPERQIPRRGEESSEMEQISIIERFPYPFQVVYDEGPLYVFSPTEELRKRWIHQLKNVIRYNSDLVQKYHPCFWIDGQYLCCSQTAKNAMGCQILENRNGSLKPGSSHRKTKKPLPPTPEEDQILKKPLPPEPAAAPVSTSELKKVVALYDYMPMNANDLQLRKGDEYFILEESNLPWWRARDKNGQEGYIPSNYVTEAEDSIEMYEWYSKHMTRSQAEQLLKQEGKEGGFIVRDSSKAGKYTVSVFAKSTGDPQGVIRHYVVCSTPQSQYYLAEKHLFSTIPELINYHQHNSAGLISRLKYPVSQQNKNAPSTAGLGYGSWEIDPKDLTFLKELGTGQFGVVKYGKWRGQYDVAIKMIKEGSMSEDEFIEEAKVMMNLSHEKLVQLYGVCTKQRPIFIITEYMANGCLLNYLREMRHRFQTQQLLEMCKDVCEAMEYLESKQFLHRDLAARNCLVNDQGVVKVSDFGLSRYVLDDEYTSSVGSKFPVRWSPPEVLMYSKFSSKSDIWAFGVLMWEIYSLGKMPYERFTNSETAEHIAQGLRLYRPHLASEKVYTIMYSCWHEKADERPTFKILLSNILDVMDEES

SMILES | GI50 ([1]; NCI-H1975 cells, 48 hours, MTS) | IC50 (BTK) | GI50 ([2]; HCC827 cells, 72 hours, SRB) | IC50 (JAK3) | also measured
C=CC(=O)Nc1cccc(Oc2nc(Nc3ccc(C(=O)NCCN(C)C)cc3)nc3ccsc23)c1 [Example 79] | 0.1 to 1 µM | ≤ 0.05 µM | < 0.05 µM | ≤ 0.05 µM | 
C=CC(=O)Nc1cccc(Oc2nc(Nc3ccc(NC4CCN(C(C)C)CC4)c(F)c3)nc3ccsc23)c1 [Example 130] | < 0.05 µM | 0.05 to 0.1 µM | < 0.05 µM | ≤ 0.05 µM | 
C=CC(=O)Nc1cccc(Oc2nc(Nc3ccc(C(=O)N4CCN(C5CCN(C)CC5)CC4)cc3)nc3ccsc23)c1 [Example 91] |  | ≤ 0.05 µM |  | 0.05 to 0.1 µM | 
C=CC(=O)Nc1cccc(Oc2nc(Nc3ccc(S(N)(=O)=O)cc3)nc3ccsc23)c1 [Example 70] |  | ≤ 0.05 µM |  | ≤ 0.05 µM | 
C=CC(=O)Nc1cccc(Oc2nc(Nc3ccc(CN4CCC(O)CC4)cc3)nc3ccsc23)c1 [Example 179] |  | ≤ 0.05 µM |  | ≤ 0.05 µM | 
C=CC(=O)Nc1cccc(Oc2nc(Nc3ccc(C(=O)NC4CCN(C)CC4)c(C)c3)nc3ccsc23)c1 [Example 145] |  | ≤ 0.05 µM |  | ≤ 0.05 µM | 
C=CC(=O)Nc1cccc(Oc2nc(Nc3ccc(C(=O)N4CCC(NC)C4)cc3)nc3ccsc23)c1 (centres unmarked) [Example 85] |  | ≤ 0.05 µM |  | ≤ 0.05 µM | 
C=CC(=O)Nc1cccc(Oc2nc(Nc3ccc(C(=O)N4CCN(C)CC4)cc3)nc3ccsc23)c1 [Example 89] |  | ≤ 0.05 µM |  | 0.05 to 0.1 µM | 
C=CC(=O)Nc1cccc(Oc2nc(Nc3ccc(N4CCC(N5CCCC5)CC4)nc3)nc3ccsc23)c1 [Example 151] |  | 0.05 to 0.1 µM |  | 0.05 to 0.1 µM | 
C=CC(=O)Nc1cccc(Oc2nc(Nc3ccc(S(=O)(=O)NC4CCN(C)CC4)cc3)nc3ccsc23)c1 [Example 73] |  | ≤ 0.05 µM |  | 0.05 to 0.1 µM | 
C=CC(=O)Nc1cccc(Oc2nc(Nc3ccc(N4CCN(C(=O)CN(C)C)CC4)cc3)nc3ccsc23)c1 [Example 21] |  | ≤ 0.05 µM |  | 0.05 to 0.1 µM | 
C=CC(=O)Nc1cccc(Oc2nc(Nc3ccc(C4=NCCCN4)cc3)nc3ccsc23)c1 [Example 104] |  | ≤ 0.05 µM |  | ≤ 0.05 µM | 
C=CC(=O)Nc1cccc(Oc2nc(Nc3ccc(C4C(=O)N(C)CCN4C)cc3)nc3ccsc23)c1 (centres unmarked) [Example 105] |  | 0.05 to 0.1 µM |  | ≤ 0.05 µM | 
CS(=O)(=O)CCNCc1ccc(-c2ccc3ncnc(Nc4ccc(OCc5cccc(F)c5)c(Cl)c4)c3c2)o1 [Lapatinib, lapatinib, reference compound] |  |  |  |  | GI50 ([1]; NCI-H1975, 48 h): > 1 µM; GI50 [2]: 0.1 to 1 µM; GI50 (A431 (EGFR WT); A-431, 72 h): 0.05 to 0.1 µM
C=CC(=O)Nc1cccc(Oc2nc(Nc3ccc(N4CCC(N5CCCCC5)CC4)nc3)nc3ccsc23)c1 [Example 152] |  | ≤ 0.05 µM |  | 0.05 to 0.1 µM | 
C=CC(=O)Nc1cccc(Oc2nc(Nc3ccc(P(=O)(OCC)OCC)cc3)nc3ccsc23)c1 [Example 67] |  | ≤ 0.05 µM |  | ≤ 0.05 µM | 
C=CC(=O)Nc1cccc(Oc2nc(Nc3ccc(CP(=O)(OC)OC)cc3)nc3ccsc23)c1 [Example 189] |  |  |  |  | GI50 ([1]; NCI-H1975, 48 h): < 0.05 µM; GI50 [2]: < 0.05 µM; GI50 (A431 (EGFR WT); A-431, 72 h): > 1 µM
C=CC(=O)Nc1cccc(Oc2nc(Nc3ccc(C4CCN(C)CC4)cc3)nc3ccsc23)c1 [Example 52] | < 0.05 µM |  | < 0.05 µM |  | GI50 (A431 (EGFR WT); [3]): > 1 µM
C=CC(=O)Nc1cccc(Oc2nc(Nc3ccc(N4CCN(C)CC4)cc3F)nc3ccsc23)c1 [Example 4] | 0.05 to 0.1 µM |  | 0.05 to 0.1 µM |  | GI50 (A431 (EGFR WT); [3]): > 1 µM
C=CC(=O)Nc1cccc(Oc2nc(Nc3ccc(N4CCN(C)CC4)c(C)c3)nc3ccsc23)c1 [Example 8] | < 0.05 µM |  | < 0.05 µM |  | GI50 (A431 (EGFR WT); [3]): > 1 µM
C=CC(=O)Nc1cccc(Oc2nc(Nc3ccc(N4CCC(C(=O)O)CC4)cc3)nc3ccsc23)c1 [Example 44] |  | 0.05 to 0.1 µM |  | 0.05 to 0.1 µM | 

Second part, led by results:

GI50 ([1]; NCI-H1975 cells, 48 hours, MTS) | IC50 (BTK) | GI50 ([2]; HCC827 cells, 72 hours, SRB) | IC50 (JAK3) | SMILES | also measured
 | 0.05 to 0.1 µM |  | ≤ 0.05 µM | C=CC(=O)Nc1cccc(Oc2nc(Nc3ccc([S+](C)[O-])cc3)nc3ccsc23)c1 (centres unmarked) [Example 68] | 
0.05 to 0.1 µM | ≤ 0.05 µM | 0.05 to 0.1 µM | 0.05 to 0.1 µM | C=CC(=O)Nc1cccc(Oc2nc(Nc3ccc(NC4CCN(C(C)C)CC4)nc3)nc3ccsc23)c1 [Example 154] | 
 | 0.05 to 0.1 µM |  | 0.05 to 0.1 µM | C=CC(=O)Nc1cccc(Oc2nc(Nc3ccc(N4CCN(C(C)C)CC4)nc3)nc3ccsc23)c1 [Example 146] | 
< 0.05 µM | ≤ 0.05 µM | 0.1 to 1 µM | ≤ 0.05 µM | C=CC(=O)Nc1cccc(Oc2nc(Nc3ccc(CC(=O)NC4CCN(C)CC4)cc3)nc3ccsc23)c1 [Example 103] | 
 | 0.05 to 0.1 µM |  | 0.05 to 0.1 µM | C=CC(=O)Nc1cccc(Oc2nc(Nc3ccc(C(=O)N4CCOCC4)cc3)nc3ccsc23)c1 [Example 88] | 
 | ≤ 0.05 µM |  | ≤ 0.05 µM | C=CC(=O)Nc1cccc(Oc2nc(Nc3ccc(CN4CCC(N(C)C)C4)cc3)nc3ccsc23)c1 (centres unmarked) [Example 177] | 
< 0.05 µM |  | 0.05 to 0.1 µM |  | C=CC(=O)Nc1cccc(Oc2nc(Nc3ccc(N4CCN(S(C)(=O)=O)CC4)cc3)nc3ccsc23)c1 [Example 23] | GI50 (A431 (EGFR WT); [3]): > 1 µM
< 0.05 µM |  | 0.1 to 1 µM |  | C=CC(=O)Nc1cccc(Oc2nc(Nc3ccc(N4CCSCC4)cc3)nc3ccsc23)c1 [Example 30] | GI50 (A431 (EGFR WT); [3]): > 1 µM
< 0.05 µM |  | < 0.05 µM |  | C=CC(=O)Nc1cccc(Oc2nc(Nc3ccc(N4CC[S+]([O-])CC4)cc3)nc3ccsc23)c1 [Example 31] | GI50 (A431 (EGFR WT); [3]): > 1 µM
< 0.05 µM |  | < 0.05 µM |  | C=CC(=O)Nc1cccc(Oc2nc(Nc3ccc(C4CCCN(C)C4)c(F)c3)nc3ccsc23)c1 (centres unmarked) [Example 128] | GI50 (A431 (EGFR WT); [3]): > 1 µM
< 0.05 µM |  | < 0.05 µM |  | C=CC(=O)Nc1cccc(Oc2nc(Nc3ccc(C(=O)NCCN4CCCC4)cc3)nc3ccsc23)c1 [Example 80] | GI50 (A431 (EGFR WT); [3]): > 1 µM
< 0.05 µM |  | < 0.05 µM |  | C=CC(=O)Nc1cccc(Oc2nc(Nc3ccc(N4CCN(C5CCN(C)CC5)CC4)cc3)nc3ccsc23)c1 [Example 26] | GI50 (A431 (EGFR WT); [3]): > 1 µM
< 0.05 µM |  | < 0.05 µM |  | C=CC(=O)Nc1cccc(Oc2nc(Nc3ccc(C[S+](C)[O-])cc3)nc3ccsc23)c1 (centres unmarked) [Example 94] | GI50 (A431 (EGFR WT); [3]): > 1 µM
 | ≤ 0.05 µM |  | 0.05 to 0.1 µM | C=CC(=O)Nc1cccc(Oc2nc(Nc3ccc(NC4CCN(C)CC4)c(Cl)c3)nc3ccsc23)c1 [Example 141] | 
 | ≤ 0.05 µM |  | 0.05 to 0.1 µM | C=CC(=O)Nc1cccc(Oc2nc(Nc3ccc(S(=O)(=O)NC4CCN(C(C)C)CC4)cc3)nc3ccsc23)c1 [Example 74] | 
< 0.05 µM |  | < 0.05 µM |  | C=CC(=O)Nc1cccc(Oc2nc(Nc3ccc(C4CCN(C(C)C)CC4)cc3)nc3ccsc23)c1 [Example 54] | GI50 (A431 (EGFR WT); [3]): > 1 µM
